ChEMBL document CHEMBL1150051, “Antiviral (RNA) activity of selected Amaryllidaceae isoquinoline constituents and synthesis of related substances” (J Nat Prod, 1992)
≈ marks a conversion by molar mass, not a printed value. Calls of active or inactive are those of the source. No cut-off for these calls is given here.

How the values were obtained:
Vaccinia virus = experiment: Antiviral activity against Vaccinia virus Lederle vaccine infected in african green monkey Vero cells assessed as inhibition of virus-induced cytopathic effect by MTT assay; format: functional, organism-based; settings: Orthopoxvirus vaccinia
Mus musculus [1] = experiment: Toxicity in C57BL/6 mouse assessed as average day of death at 2 mg/kg/day, sc once daily for 7 days; format: organism-based; parameters: route subcutaneous; settings: in vivo, 168 h
Mus musculus [2] = experiment: Toxicity in C57BL/6 mouse assessed as mortality at 40 mg/kg/day, sc once daily for 7 days; format: organism-based; parameters: route subcutaneous; settings: in vivo, 168 h
dengue virus type 4 = experiment: Antiviral activity against Dengue virus type 4 infected in african green monkey Vero cells after 6 days by plaque reduction assay; format: functional, organism-based; settings: Dengue virus, Vero, 144 h; read-out: IC50
Mus musculus [3] = experiment: Toxicity in C57BL/6 mouse assessed as mortality at 20 mg/kg/day, sc once daily for 7 days; format: organism-based; parameters: route subcutaneous; settings: in vivo, 168 h
[4] = Therapeutic index, ratio of TC50 for african green monkey Vero cells to IC50 for Japanese encephalitis virus Nakayama; format: cell-based; settings: read-out: TI
[5] = system: Sandfly fever Sicilian virus; experiment: Antiviral activity against Sandfly fever sicilian virus infected in african green monkey Vero cells assessed as inhibition of virus-induced cytopathic effect by MTT assay; format: functional, organism-based; settings: sandfly fever Sicilian virus, Vero; read-out: IC50
[6] = system: Japanese encephalitis virus; experiment: Antiviral activity against Japanese encephalitis virus Beijing infected in low viral dose challenge C57BL/6 mouse model assessed as average day of death at 40 mg/kg/day, sc once daily for 7 days administered 1 day before infection measured after 28 days post infection; format: functional; settings: route subcutaneous
[7] = system: Japanese encephalitis virus; experiment: Antiviral activity against Japanese encephalitis virus Beijing infected in low viral dose challenge C57BL/6 mouse model assessed as survival rate at 10 mg/kg/day, sc once daily for 7 days administered 1 day before infection measured after 28 days post infection relative to control; format: functional, organism-based
[8] = system: Japanese encephalitis virus; experiment: Antiviral activity against Japanese encephalitis virus Nakayama infected in african green monkey Vero cells assessed as inhibition of virus-induced cytopathic effect by MTT assay; format: functional, organism-based; settings: Japanese encephalitis virus, Nakayama, Vero; read-out: IC50
Mus musculus [9] = experiment: Toxicity in C57BL/6 mouse assessed as mortality at 10 mg/kg/day, sc once daily for 7 days; format: organism-based; parameters: route subcutaneous; settings: in vivo, 168 h
Rift Valley fever virus = experiment: Antiviral activity against Rift Valley fever virus infected in african green monkey Vero cells after 6 days by plaque reduction assay; format: functional, organism-based; settings: Rift Valley fever virus, Vero, 144 h; read-out: IC50
[10] = system: Japanese encephalitis virus; experiment: Antiviral activity against Japanese encephalitis virus Beijing infected in low viral dose challenge C57BL/6 mouse model assessed as average day of death at 20 mg/kg/day, sc once daily for 7 days administered 1 day before infection measured after 28 days post infection; format: functional; settings: route subcutaneous
[11] = system: Human immunodeficiency virus 1; experiment: Antiviral activity against HIV1 by cells based assay; format: functional, organism-based
Yellow fever virus = experiment: Antiviral activity against Yellow fever virus Ashibi infected in african green monkey Vero cells assessed as inhibition of virus-induced cytopathic effect by MTT assay; format: functional, organism-based; settings: Yellow fever virus, Ashibi, Vero; read-out: IC50
[12] = Therapeutic index, ratio of TC50 for african green monkey Vero cells to IC50 for Dengue type 4 virus; format: cell-based; settings: read-out: TI
[13] = Therapeutic index, ratio of TC50 for african green monkey Vero cells to IC50 for Punta toro virus Adames; format: cell-based; settings: read-out: TI
[14] = system: Japanese encephalitis virus; experiment: Antiviral activity against Japanese encephalitis virus Beijing infected in low viral dose challenge C57BL/6 mouse model assessed as average day of death at 10 mg/kg/day, sc once daily for 7 days administered 1 day before infection measured after 28 days post infection; format: functional; settings: route subcutaneous
[15] = system: Japanese encephalitis virus; experiment: Antiviral activity against Japanese encephalitis virus Beijing infected in low viral dose challenge C57BL/6 mouse model assessed as survival rate at 40 mg/kg/day, sc once daily for 7 days administered 1 day before infection measured after 28 days post infection relative to control; format: functional; settings: route subcutaneous
[16] = system: Venezuelan equine encephalitis virus; experiment: Antiviral activity against Venezuelan equine encephalitis virus Trinidad donkey infected in african green monkey Vero cells assessed as inhibition of virus-induced cytopathic effect by MTT assay; format: functional, organism-based
[17] = Therapeutic index, ratio of TC50 for african green monkey Vero cells to IC50 for Yellow fever virus Ashibi; format: cell-based; settings: read-out: TI
[18] = system: Japanese encephalitis virus; experiment: Antiviral activity against Japanese encephalitis virus Beijing infected in low viral dose challenge C57BL/6 mouse model assessed as survival rate at 20 mg/kg/day, sc once daily for 7 days administered 1 day before infection measured after 28 days post infection relative to control; format: functional; settings: route subcutaneous
Punta Toro virus = experiment: Antiviral activity against Punta Toro virus Adames infected in african green monkey Vero cells assessed as inhibition of virus-induced cytopathic effect by MTT assay; format: functional, organism-based; settings: Punta Toro virus, Adames, Vero; read-out: IC50
[19] = Therapeutic index, ratio of TC50 for african green monkey Vero cells to IC50 for Rift valley fever virus; format: cell-based; settings: read-out: TI
[20] = Therapeutic index, ratio of TC50 for african green monkey Vero cells to IC50 for Sandfly fever sicilian virus; format: cell-based; settings: read-out: TI
Mus musculus [21] = experiment: Toxicity in C57BL/6 mouse assessed as body weight loss at 40 mg/kg/day, sc once daily for 7 days; format: organism-based; parameters: route subcutaneous; settings: in vivo, 168 h

SMILES: O=C1N[C@H]2[C@H](O)[C@H](O)[C@@H](O)[C@H](O)[C@@H]2c2cc3c(cc21)OCO3
- Activity (Vaccinia virus): inactive
- Activity (Mus musculus [1]): 28 days
- Activity (Mus musculus [2]): Non-toxic
- IC50 (dengue virus type 4): 0.67 µg/mL (≈ 2.17 µM)
- Activity (Mus musculus [3]): Non-toxic
- selectivity ratio [4]: 5.9
- IC50 [5]: 1.7 µg/mL (≈ 5.5 µM)
- Activity [6]: 9.5 days
- Activity [7]: inactive
- IC50 [8]: 0.48 µg/mL (≈ 1.55 µM)
- Activity (Mus musculus [9]): Non-toxic
- IC50 (Rift Valley fever virus): 5.1 µg/mL (≈ 16.5 µM)
- Activity [10]: 15 days
- Activity [11]: inactive
- IC50 (Yellow fever virus): 0.4 µg/mL (≈ 1.29 µM)
- selectivity ratio [12]: 3.7
- selectivity ratio [13]: 4.3
- Activity [14]: 13.6 days
- Activity [15]: 80%
- Activity [16]: inactive
- selectivity ratio [17]: 6.6
- Activity [18]: 60%
- IC50 (Punta Toro virus): 0.66 µg/mL (≈ 2.13 µM)
- selectivity ratio [19]: 4.3
- selectivity ratio [20]: 2.7
- Activity (Mus musculus [21]): Toxic
